The test system of assay [1] is renovascular hypertensive rats. The assay is described as follows: Effect on reducing blood pressure of renovascular hypertensive rats by single oral administration. It is filed as in vivo, Wistar rats. Particulars: for change in vivo at 0.5 mg/kg / inhibition in vivo at 0.5 mg/kg / change in vivo at 1 mg/kg / inhibition in vivo at 1 mg/kg / change in vivo at 2 mg/kg / inhibition in vivo at 2 mg/kg: Rattus norvegicus, single oral administration; for change in vivo at 0.5 mg/kg / change in vivo at 1 mg/kg / change in vivo at 2 mg/kg: RHR, read-out: Variations on heart rate; for inhibition in vivo at 0.5 mg/kg / inhibition in vivo at 1 mg/kg / inhibition in vivo at 2 mg/kg: two-kidney one-clip RHR, measured 1-10 h, read-out: Maximum blood pressure reduction.

For assay [2], the system named is spontaneously hypertensive rats (SHR). The assay is described as follows: Effect on reducing blood pressure of spontaneously hypertensive rats (SHR) by multiple oral administrations. Format: in vivo.
The next assay relates to normal rats. The assay is described as follows: Effect on blood pressure of normal rats by single oral administration. It is filed as in vivo, Wistar rats. Particulars: for inhibition in vivo at 0.5 mg/kg / inhibition in vivo at 1 mg/kg / inhibition in vivo at 2 mg/kg / change in vivo at 0.5 mg/kg / change in vivo at 1 mg/kg / change in vivo at 2 mg/kg: Rattus norvegicus, po, single, normal rats; for inhibition in vivo at 0.5 mg/kg / inhibition in vivo at 1 mg/kg / inhibition in vivo at 2 mg/kg: 8 h, read-out: blood pressure reduction at 8 h after the administration; for inhibition in vivo at 0.5 mg/kg / change in vivo at 0.5 mg/kg: 0.5 mg/kg p.o.; for inhibition in vivo at 1 mg/kg / change in vivo at 1 mg/kg: 1.0 mg/kg p.o.; for inhibition in vivo at 2 mg/kg / change in vivo at 2 mg/kg: 2.0 mg/kg p.o.; for change in vivo at 0.5 mg/kg / change in vivo at 1 mg/kg / change in vivo at 2 mg/kg: read-out: variations on heart rate.

Setting [3] is: renal artery-ligated rat, 24 hours after the administration, dose not stated.
The mark [4] stands for this setting: renal artery-ligated rat, result in words.
Where [5] appears, read: Rattus norvegicus, 0.5 mg/kg oral once per day, SHR, 1 hour after the administration, read-out: Maximum blood pressure reduction, 1st-day administration.
[6] abbreviates: Rattus norvegicus, 0.5 mg/kg oral once per day, SHR, 1 hour after the administration, read-out: Maximum blood pressure reduction, 7th-day administration.
Setting [7] is: Rattus norvegicus, 0.5 mg/kg oral once per day, SHR, 1 hour after the administration, read-out: Maximum blood pressure reduction, 14th-day administration.
The mark [8] stands for this setting: Rattus norvegicus, 1.0 mg/kg oral once per day, SHR, 1 hour after the administration, read-out: Maximum blood pressure reduction, 1st-day administration.
Where [9] appears, read: Rattus norvegicus, 1.0 mg/kg oral once per day, SHR, 1 hour after the administration, read-out: Maximum blood pressure reduction, 7th-day administration.
Where [10] appears, read: Rattus norvegicus, 1.0 mg/kg oral once per day, SHR, 1 hour after the administration, read-out: Maximum blood pressure reduction, 14th-day administration.
Where [11] appears, read: Rattus norvegicus, 1.0 mg/kg oral, SHR, read-out: Heart Rate (effect on reducing heart rate).
[12] abbreviates: Rattus norvegicus, 2.0 mg/kg oral once per day, SHR, 1 hour after the administration, read-out: Maximum blood pressure reduction, 1st-day administration.
Where [13] appears, read: Rattus norvegicus, 2.0 mg/kg oral once per day, SHR, 1 hour after the administration, read-out: Maximum blood pressure reduction, 7th-day administration.
Where [14] appears, read: Rattus norvegicus, 2.0 mg/kg oral once per day, SHR, 1 hour after the administration, read-out: Maximum blood pressure reduction, 14th-day administration.
Setting [15] is: Rattus norvegicus, 2.0 mg/kg oral, SHR, read-out: Heart Rate (effect on reducing heart rate).
[16] abbreviates: during the whole administration, result in words.

The structures appear in SMILES notation. Values joined by “and” are separate entries in the source; they are usually repeats but may differ in a detail not shown here. Equal entries are not always repeated. Where two headings read alike, the source gives them in different places.

The results in this text go back to US9708306B2, “Benzimidazole derivatives and preparation process and pharmaceutical uses thereof” (WUHAN LL SCIENCE AND TECHNOLOGY DEVELOPMENT CO., LTD, priority 2015, dated 2017).

For the molecule `CCOc1nc2cccc(C(=O)OCOC(=O)C(C)(C)C)c2n1Cc1ccc(-c2ccccc2-c2noc(=O)[nH]2)cc1` [QR01005], the change in vivo at 0.5 mg/kg in assay [1] was -10 ± 3%; in the assay with normal rats, -3 ± 1%. The inhibition in vivo at 0.5 mg/kg in assay [1] worked out at 16 ± 3.2%; in assay [2] (setting [5]), 16 ± 4.8%; in assay [2] (setting [6]) it was 18 ± 5.2%; in assay [2] (setting [7]) it was 21 ± 3.9%; with normal rats, 6.3 ± 1.3%. For the same molecule, the figures for the change in vivo at 1 mg/kg (in assay [1]; in the assay with normal rats) were -21 ± 6% and -6 ± 6%, respectively. Further, the inhibition in vivo at 1 mg/kg was 36 ± 3.1% in assay [1]; 38 ± 3.7% in assay [2] (setting [8]); 40 ± 6.2% in assay [2] (setting [9]); 42 ± 6.1% in assay [2] (setting [10]); 23 ± 6% in assay [2] (setting [11]); 3.6 ± 2.1% in the assay on normal rats. In addition, the change in vivo at 2 mg/kg in assay [1] was -25 ± 6%; with normal rats it was 8%. Moreover, the inhibition in vivo at 2 mg/kg was found to be 43 ± 3.5% in assay [1]; 45 ± 4.8% in assay [2] (setting [12]); 41 ± 6.2% in assay [2] (setting [13]); 45 ± 7.2% in assay [2] (setting [14]); 21 ± 4% in assay [2] (setting [15]); 4.8 ± 2.3% in the assay with normal rats. The “blood pressure reduction at 24 hours after the administration” value (from here on “blood pressure reduction at 24 hours”) in assay [1] (setting [3]) is recorded as 21%. For the same molecule, the “blood pressure reduction effect compared with Azilsartan medoxomil” value in assay [1] (setting [4]) is “obviously superior to that of the Azilsartan medoxomil positive drug”; in assay [2] (SHR, result in words), “obviously superior to that of the Azilsartan medoxomil positive drug”. The “lasting time of the blood pressure reduction effect compared with Azilsartan medoxomil” value in assay [1] (setting [4]) was “close to that of Azilsartan medoxomil”. Further, the inhibition in vivo at 5 mg/kg in assay [2] (Rattus norvegicus, 5 mg/kg oral, SHR, read-out: Heart Rate (effect on reducing heart rate)) was 18 ± 5%. Further, in assay [2] (setting [16]), the “reduction effects on the heart rate of SHR rats” value (shortened to “reduction effects”) was “significant reduction effects on the heart rate”.
Consider `CCOc1nc2cccc(C(=O)OC(C)OC(=O)OC(C)C)c2n1Cc1ccc(-c2ccccc2-c2noc(=O)[nH]2)cc1` (stereo not drawn) [QR01003], for which the change in vivo at 0.5 mg/kg in assay [1] is 2%; with normal rats, -2 ± 2%. In addition, the inhibition in vivo at 0.5 mg/kg in assay [1] was 15 ± 1.8%; in assay [2] (setting [5]) it was 18 ± 4.6%; in assay [2] (setting [6]), 21 ± 6.3%; in assay [2] (setting [7]), 17 ± 6.8%; in the assay on normal rats, 5.6 ± 3.1%. Besides, the results for the change in vivo at 1 mg/kg (in assay [1]; with normal rats) were -3 ± 2% and 4%, respectively. Moreover, the inhibition in vivo at 1 mg/kg in assay [1] stood at 28 ± 2.9%; in assay [2] (setting [8]), 31 ± 6.8%; in assay [2] (setting [9]), 35 ± 7.3%; in assay [2] (setting [10]) it was 36 ± 8.1%; with normal rats, 5.4 ± 1.9%. Further, the change in vivo at 2 mg/kg in assay [1] was -5 ± 2%; in the assay with normal rats it was -3 ± 4%. For the same molecule, the inhibition in vivo at 2 mg/kg in assay [1] came out at 36 ± 4.3%; in assay [2] (setting [12]), 39 ± 5%; in assay [2] (setting [13]), 41 ± 5.7%; in assay [2] (setting [14]), 44 ± 6.1%; in the assay on normal rats, 6.4 ± 3.4%. In assay [1] (setting [4]), the “blood pressure reduction effect compared with Azilsartan medoxomil” value is on record as “close to that of Azilsartan medoxomil”.
Turning to `CCOc1nc2cccc(C(=O)OC(C)OC(=O)OCc3no[n+]([O-])c3C)c2n1Cc1ccc(-c2ccccc2-c2noc(=O)[nH]2)cc1` (stereo not drawn) [QR01021], the change in vivo at 0.5 mg/kg was -6 ± 5% in assay [1] and -4 ± 3% in the assay on normal rats. Further, the inhibition in vivo at 0.5 mg/kg in assay [1] worked out at 15 ± 2.1%; in assay [2] (setting [5]), 23 ± 6.4%; in assay [2] (setting [6]) it was 24 ± 4.1%; in assay [2] (setting [7]), 25 ± 5%; in the assay on normal rats it was 2.7 ± 3.2%. Also, the change in vivo at 1 mg/kg is -3 ± 6% in assay [1] and -2 ± 5% in the assay on normal rats. The inhibition in vivo at 1 mg/kg came to 28 ± 4.5% in assay [1]; 42 ± 7.7% in assay [2] (setting [8]); 40 ± 3.8% in assay [2] (setting [9]); 44 ± 5.1% in assay [2] (setting [10]); 3.9 ± 3.8% in the assay on normal rats. Besides, the change in vivo at 2 mg/kg in assay [1] is -12 ± 5%; with normal rats, -1 ± 3%. Also, the inhibition in vivo at 2 mg/kg in assay [1] was determined as 32 ± 5.2%; in assay [2] (setting [12]) it was 44 ± 6%; in assay [2] (setting [13]) it was 44 ± 8.7%; in assay [2] (setting [14]), 46 ± 5.9%; in the assay with normal rats it was 2.8 ± 3.1%. For the same molecule, the “blood pressure reduction effect compared with Azilsartan medoxomil” value is “close to that of Azilsartan medoxomil” in assay [1] (setting [4]) and “obviously superior to that of the Azilsartan medoxomil positive drug” in assay [2] (SHR, result in words).
For `CCOc1nc2cccc(C(=O)OCc3c(-c4ccccc4)no[n+]3[O-])c2n1Cc1ccc(-c2ccccc2-c2noc(=O)[nH]2)cc1` [QR01009], the change in vivo at 0.5 mg/kg in assay [1] was -12 ± 4%; in the assay with normal rats it was -5 ± 2%. The inhibition in vivo at 0.5 mg/kg in assay [1] was found to be 22 ± 2.8%; in assay [2] (setting [5]), 24 ± 6.8%; in assay [2] (setting [6]), 28 ± 5.3%; in assay [2] (setting [7]), 25 ± 4.9%; in assay [2] (Rattus norvegicus, 0.5 mg/kg oral, SHR, read-out: Heart Rate (effect on reducing heart rate)), 23 ± 3%; with normal rats, 3.1 ± 2.4%. Further, the results for the change in vivo at 1 mg/kg (in assay [1]; with normal rats) were -25 ± 5% and 4%, respectively. Also, the inhibition in vivo at 1 mg/kg in assay [1] turned out to be 36 ± 3.2%; in assay [2] (setting [8]), 42 ± 6.3%; in assay [2] (setting [9]) it was 41 ± 5.9%; in assay [2] (setting [10]) it was 45 ± 6.7%; in assay [2] (setting [11]) it was 24 ± 2%; in the assay on normal rats it was 5.6 ± 1.9%. Besides, the figures for the change in vivo at 2 mg/kg (in assay [1]; in the assay with normal rats) were -28 ± 8% and -8 ± 5%, respectively. Further, the inhibition in vivo at 2 mg/kg in assay [1] is 43 ± 6.7%; in assay [2] (setting [12]), 45 ± 5.6%; in assay [2] (setting [13]) it was 48 ± 4.6%; in assay [2] (setting [14]) it was 43 ± 7.2%; in assay [2] (setting [15]), 27 ± 5%; in the assay with normal rats, 4.8 ± 5.8%. In assay [1] (setting [3]), the “blood pressure reduction at 24 hours” value worked out at 25%. Moreover, the “blood pressure reduction effect compared with Azilsartan medoxomil” value in assay [1] (setting [4]) is “obviously superior to that of the Azilsartan medoxomil positive drug”; in assay [2] (SHR, result in words), “obviously superior to that of the Azilsartan medoxomil positive drug”. In assay [1] (setting [4]), the “lasting time of the blood pressure reduction effect compared with Azilsartan medoxomil” value is given as “close to that of Azilsartan medoxomil”. The “reduction effects” value in assay [2] (setting [16]) is given as “significant reduction effects on the heart rate”.
For `CCOc1nc2cccc(C(=O)OCOC(=O)OCc3nc(C)c(C)nc3C)c2n1Cc1ccc(-c2ccccc2-c2noc(=O)[nH]2)cc1` [QR01017], in assay [1] (rat, in vivo), the “Maximum blood pressure reduction” value was 25 ± 6.2% and 38 ± 3.5% and 46 ± 2.6%; the “blood pressure reduction at 24 hours” value was 20%; the “blood pressure reduction effect compared with Azilsartan medoxomil” value is reported as “obviously superior to that of the Azilsartan medoxomil positive drug”; the “lasting time of the blood pressure reduction effect compared with Azilsartan medoxomil” value was “close to that of Azilsartan medoxomil”. In assay [2] (rat, in vivo), the “Heart Rate (effect on reducing heart rate)” value was 18 ± 5% and 24 ± 4% and 29 ± 6%; the “Maximum blood pressure reduction, 1st-day administration” value is 22 ± 5.0% and 34 ± 4.4% and 36 ± 4.5%; the “Maximum blood pressure reduction, 7th-day administration” value is 22 ± 3.3% and 35 ± 3.9% and 38 ± 2.1%; the “Maximum blood pressure reduction, 14th-day administration” value is 23 ± 3.9% and 36 ± 3.2% and 38 ± 3.6%. In addition, the “reduction effects” value in assay [2] (rat, in vivo) was “significant reduction effects on the heart rate”. In the assay on normal rats (rat, in vivo), the “Variations on heart rate” value was −5 ± 2% and −2 ± 4% and −4 ± 3%; the “blood pressure reduction at 8 h after the administration” value is 2.9 ± 4.5% and 3.3 ± 4.1% and 5.1 ± 3.2%.
